These results are taken from publication PMC9197583 (Chemical communications (Cambridge, England), 2022).

One may read the Kd as the equilibrium constant for the complex coming apart.

The target of the assay is T1, NrtA (Synechocystis sp. PCC 6803, UniProt P73452).
T1 sequence (P73452 30-446): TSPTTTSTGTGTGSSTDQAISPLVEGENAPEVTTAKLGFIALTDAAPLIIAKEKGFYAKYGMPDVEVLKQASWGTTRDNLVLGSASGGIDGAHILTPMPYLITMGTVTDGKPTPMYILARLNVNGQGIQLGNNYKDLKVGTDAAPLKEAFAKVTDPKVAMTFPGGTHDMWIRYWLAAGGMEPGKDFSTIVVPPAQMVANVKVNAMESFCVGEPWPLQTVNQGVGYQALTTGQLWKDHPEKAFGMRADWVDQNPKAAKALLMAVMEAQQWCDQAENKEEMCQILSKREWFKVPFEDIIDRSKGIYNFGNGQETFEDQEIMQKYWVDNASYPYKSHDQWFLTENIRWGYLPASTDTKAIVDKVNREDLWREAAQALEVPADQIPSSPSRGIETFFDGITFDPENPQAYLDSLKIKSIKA
Briefly: isothermal titration calorimetry. It is filed as binding. (In general: ITC needs no label: the signal is the heat of the interaction.)

Take `O=[N+]([O-])O` [nitrate]: the affinity, expressed as Kd, was 57 ± 23 nM.
With `O=NO` [nitrite], the Kd amounted to 230 ± 33 nM.
